Key:
Assay type in all cases: functional
Escherichia coli [1] = assay: Antimicrobial activity against non-CTX-M ESBL producing isolate of Escherichia coli by double-disk diffusion method
Escherichia coli [2] = assay: Antimicrobial activity against CTX-M ESBL producing isolate of Escherichia coli at 30 ug by double-disk diffusion method; conditions: read-out: DIZ
Klebsiella pneumoniae = assay: Antimicrobial activity against CTX-M ESBL producing isolate of Klebsiella pneumoniae at 30 ug by double-disk diffusion method; conditions: read-out: DIZ
Klebsiella oxytoca = assay: Antimicrobial activity against CTX-M ESBL producing isolate of Klebsiella oxytoca at 30 ug by double-disk diffusion method; conditions: read-out: DIZ

Compound | diameter of the inhibition zone (DIZ) (Escherichia coli [1]) [mm] | zone of inhibition at 30 µg/disc (Escherichia coli [2]) [mm] | zone of inhibition at 30 µg/disc (Klebsiella pneumoniae) [mm] | zone of inhibition at 30 µg/disc (Klebsiella oxytoca) [mm]
CO/N=C(\C(=O)N[C@@H]1C(=O)N2C(C(=O)O)=C(COC(C)=O)CS[C@H]12)c1csc(N)n1 [CEFOTAXIME] | 21 | 8.8 | 10.8 | 16.8
CC(C)(O/N=C(\C(=O)N[C@@H]1C(=O)N2C(C(=O)[O-])=C(C[n+]3ccccc3)CS[C@H]12)c1csc(N)n1)C(=O)O [CEFTAZIDIME] | 17.3 | 15.9 | 9.8 | 9.2
